Tests used:
[1] = system: choreic dyskinesia induced by dopamine agonist; assay: In vivo model for dyskinesias associated with dopamine agonist therapy (MPTP parkinsonian monkeys); conditions: 0.3 mg/kg sc.; one MPTP parkinsonian monkey, dyskinesias induced by chronic L-DOPA followed by PHNO
Protocol: The following procedure may be used to assess the efficacy of an AMPA receptor antagonist in the treatment of dyskinesias associated with dopamine agonist therapy in the treatment of Parkinson's disease. Aged, female rhesus monkeys are rendered Parkinsonian as follows. Each monkey is first infused with 0.4 mg/kg MPTP (1-methyl-4-phenyl-1,2,3,6-tetrahydropyridine) via the right internal carotid artery. After being evaluated behaviorally for 3 to 6 weeks and being judged to have stable unilateral deficits, the animals receive a second MPTP injection via the left internal carotid artery. […] Once the monkeys are Parkinsonian, dyskinesias are induced over a period of approximately 3 to 6 weeks by treating the monkeys twice daily with subcutaneous injections of PHNO ((+)-4-propyl-9-hydroxynaphthoxazine) (a dopamine agonist). Dyskinesias are assessed 30 minutes after PHNO injection and every 30 minutes for the next 120 minutes (5 measurements) taking into account the following: type of dyskinesia (chorea, dystonia); intensity (0=absent; 1=mild; 2=moderate; 3=severe); and topography (arm, leg, trunk, generalized). The overall score (0-3) is averaged over the 5 measurements. Scoring is performed blindly from coded videotapes. An AMPA receptor antagonist is then administered together with the dopamine agonist at dosages ranging from 0.05 mg/kg to 1 mg/kg. […]

[2] = system: behavior of monkeys (MPTP-treated or untreated); assay: Behavioral effect in other monkeys (MPTP-treated or untreated); type: in vivo, monkey; conditions: 0.3 mg/kg sc.
Protocol: Monkeys were made parkinsonian by intracarotid injection of the dopamine neuron toxin MPTP. Choreic and dystonic dyskinesias were induced in one monkey by chronic administration of L-DOPA followed by the selective D2 agonist PHNO. 3-(2-chloro-phenyl)-2-[2(6-diethylaminomethyl-pyridin-2-yl)-vinyl]-6-fluoro-3H-quinazolin-4-one (0.3 mg/kg sc.) reduced by 80% the choreic dyskinesia induced by dopamine agonist.

behavioral effect [2]: little or no behavioral effect
SMILES: CCN(CC)Cc1cccc(C=Cc2nc3ccc(F)cc3c(=O)n2-c2ccccc2Cl)n1 [3-(2-chloro-phenyl)-2-[2-(6-diethylaminomethyl-pyridin-2-yl)-vinyl]-6-fluoro-3H-quinazolin-4-one]
reduction of choreic dyskinesia induced by dopamine agonist [1]: 80%

— patent US20010034345A1, “METHODS OF ADMINSTERING AN AMPA RECEPTOR ANTAGONIST TO TREAT DYSKINESIAS ASSOCIATED WITH DOPAMINE AGONIST THERAPY” (priority 1997, published 2001)
